Experimental data as given in ChEMBL document CHEMBL1914313, “Monosubstituted γ-lactam and conformationally constrained 1,3-diaminopropan-2-ol transition-state isostere inhibitors of β-secretase (BACE)” (Bioorg Med Chem Lett, 2011).
Active and inactive are the calls of the source. The calls are words filed in the database; no cut-off is given here.

Experiments:
[1] = Ratio drug level in brain to plasma of CD-IGS rat at 30 mg/kg, ip measured after 5 hrs; assay type: ADME, organism-based; parameters: dose 30 mg/kg, route intraperitoneal; conditions: read-out: BPR
[2] = Plasma concentration in CD-IGS rat at 30 mg/kg, ip measured after 5 hrs; assay type: ADME, organism-based; parameters: dose 30 mg/kg, route intraperitoneal
[3] = target: T1, Beta-secretase 1 (Homo sapiens, UniProt P56817); test: Inhibition of BACE1 by HPLC method
T1 sequence (P56817 whole entry): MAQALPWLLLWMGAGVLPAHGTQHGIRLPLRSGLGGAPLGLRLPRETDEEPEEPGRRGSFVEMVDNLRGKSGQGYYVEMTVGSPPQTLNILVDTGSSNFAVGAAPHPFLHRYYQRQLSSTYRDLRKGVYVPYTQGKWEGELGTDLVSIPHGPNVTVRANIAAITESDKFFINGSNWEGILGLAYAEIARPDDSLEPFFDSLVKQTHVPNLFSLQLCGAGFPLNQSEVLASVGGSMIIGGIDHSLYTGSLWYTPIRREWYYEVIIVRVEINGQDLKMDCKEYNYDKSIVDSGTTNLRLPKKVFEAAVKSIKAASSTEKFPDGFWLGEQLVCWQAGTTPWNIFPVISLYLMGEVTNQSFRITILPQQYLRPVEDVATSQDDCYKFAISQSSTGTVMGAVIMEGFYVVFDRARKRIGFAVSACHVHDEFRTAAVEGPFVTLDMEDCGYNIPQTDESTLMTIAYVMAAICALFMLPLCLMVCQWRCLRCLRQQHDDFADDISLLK

[4] = test system: Rattus norvegicus; test: Antialzheimer activity in CD-IGS rat assessed as reduction in brain amyloid beta level at 30 mg/kg, ip measured after 5 hrs relative to control; assay type: functional; parameters: scale not given: the % may be the effect or the level left; conditions: route intraperitoneal
[5] = target: T1, Beta-secretase 1; test: Inhibition of BACE1 in human HEK293 cells expressing swedish mutant APP; assay type: cell-based
[6] = test system: Rattus norvegicus; test: Antialzheimer activity in CD-IGS rat assessed as reduction in plasma amyloid beta level at 30 mg/kg, ip measured after 5 hrs relative to control; assay type: functional; parameters: scale not given: the % may be the effect or the level left; conditions: route intraperitoneal
[7] = Fraction unbound in plasma of CD-IGS rat at 30 mg/kg, ip measured after 5 hrs; assay type: ADME, organism-based; parameters: dose 30 mg/kg, route intraperitoneal
[8] = Drug level in brain of transgenic 2576 mouse at 30 mg/kg, sc measured after 5 hrs; assay type: ADME, organism-based; parameters: dose 30 mg/kg, route subcutaneous; conditions: read-out: Drug uptake
[9] = test system: Mus musculus; test: Antialzheimer activity in transgenic 2576 mouse assessed as reduction in brain amyloid beta level at 30 mg/kg, sc measured after 5 hrs relative to control; assay type: functional, organism-based; parameters: dose 30 mg/kg
[10] = Ratio drug level in brain to plasma of transgenic 2576 mouse at 30 mg/kg, sc measured after 5 hrs; assay type: ADME, organism-based; parameters: dose 30 mg/kg, route subcutaneous; conditions: read-out: BPR
[11] = Selectivity for BACE1 over cathepsin D
[12] = Fraction unbound in plasma of transgenic 2576 mouse at 30 mg/kg, sc measured after 5 hrs; assay type: ADME, organism-based; parameters: dose 30 mg/kg, route subcutaneous
[13] = Selectivity for BACE1 over cathepsin E
[14] = Selectivity for BACE1 over pepsin
[15] = Drug level in plasma of transgenic 2576 mouse at 30 mg/kg, sc measured after 5 hrs; assay type: ADME, organism-based; parameters: dose 30 mg/kg, route subcutaneous
[16] = test system: Mus musculus; test: Antialzheimer activity in transgenic 2576 mouse assessed as reduction in plasma amyloid beta level at 30 mg/kg, sc measured after 5 hrs relative to control; assay type: functional; parameters: scale not given: the % may be the effect or the level left; conditions: route subcutaneous

Kp at 5 h [1]	concentration at 5 h [2] [nM]	IC50 [3] [nM]	IC50 [5] [nM]	fraction unbound at 5 h [7]	concentration at 5 h [8] [nM]	Kp at 5 h [10]	Selectivity ratio [11]	fraction unbound at 5 h [12]	Selectivity ratio [13]	Selectivity ratio [14]	concentration at 5 h [15] [nM]	SMILES	Activity [4] [%]	Activity [6] [%]	Activity [9]	Activity [16] [%]
0.02	4000	19	84									CCCC[C@H]1CCN([C@@H](CCc2ccccc2)C(=O)N[C@@H](Cc2cc(F)cc(F)c2)[C@H](O)[C@H]2C[C@@H](OCCC)CN2)C1=O	114	23		
0.18	1600	60	81	0.029								CCCC[C@H]1CCN([C@@H](C)C(=O)N[C@@H](Cc2cc(F)cc(F)c2)[C@H](O)CNCc2cccc(OC)c2)C1=O	112	26		
		0.89	11		680	0.87	3400	0.1	3400	3400	780	CCC(C)[C@@]1(NC(C)=O)CCN([C@@H](CCc2ccccc2)C(=O)N[C@@H](Cc2cc(F)cc(F)c2)[C@H](O)[C@H]2C[C@H](O)CN2)C1=O (some centres undefined)			inactive	66
